Literature values in patent US6974685B2, “High production method of prenyl alcohol using saccharomyces cells” (Toyota Jidosha Kabushiki Kaisha 1, priority 2000, dated 2005).

Test system: erg mutant of Saccharoinyces cerevisiae
Settings: Curr. Genet., 18, 41-46 (1990)

With `CC(C)=CCCC(C)=CCCC(C)=CCO` [FOH, farnesol] as the compound, how does the farnesol production read?
The farnesol production was 1 mg/L.
